Source: patent publication US7868026B2, “Therapeutic compounds” (Pfizer Inc., priority 2005, dated 2011)
Where two headings read alike, the source gives them in different places.

Legend:
Format in all cases: biochemical
[1] = molecular target: T1, CYP3A4 (Homo sapiens, UniProt P08684); assay: Determination of compound Kiapp against recombinant CYP3A4 enzyme (BFC fluorescent substrate)
Procedure, shortened: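 Kiapp derived from initial velocities over the first 5 min of BFC (5 uM) oxidation, using Morrison's tight-binding equation for non-partial and Szedlacsek's for partial inhibitors. Inhibitor first pre-incubated ≥30 min with CYP3A4 (5.5 or 8 nM, ±b5) in pH 7.0 phosphate/TCEP/2% DMF at room temperature; 200 uM NADPH initiated.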

[2] = molecular target: T1, CYP3A4; assay: Determination of IC50 against CYP3A4 by measurement of inhibition of testosterone metabolism (human liver microsomes, 6-β-OH-testosterone by LC-MS/MS); set-up: 0.1 mg/mL human liver microsomes; details: read-out: IC50 (Testo.)
Procedure, shortened: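 6-β-OH-testosterone formation was read by LC-MS/MS (MRM, internal standard, standard curve) after eight minutes. Reaction contained testosterone 25 μM, NADPH 1 mM and microsomal protein 0.1 mg/mL in pH 7.4 potassium phosphate (100 mM).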

[3] = molecular target: T1, CYP3A4; assay: Determination of IC50 against CYP3A4 by measurement of inhibition of midazolam metabolism (human liver microsomes, 1-hydroxymidazolam by LC-MS/MS); set-up: 0.1 mg/mL human liver microsomes; details: 2 μM midazolam, 0.1 mg/mL human liver microsomes
Procedure, shortened: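 Human liver microsomes (0.1 mg/mL) incubated 8 min with 2 μM midazolam and 1 mM NADPH in 100 mM potassium phosphate, pH 7.4. 1-Hydroxymidazolam quantified by LC-MS/MS (MRM) as peak area ratio to internal standard against a metabolite standard curve.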

[4] = Baculo. enzyme preparation, read-out: Kiapp (BFC, Baculo.)
[5] = Super. enzyme preparation, read-out: Kiapp (BFC, Super.)

T1 sequence (P08684 whole entry): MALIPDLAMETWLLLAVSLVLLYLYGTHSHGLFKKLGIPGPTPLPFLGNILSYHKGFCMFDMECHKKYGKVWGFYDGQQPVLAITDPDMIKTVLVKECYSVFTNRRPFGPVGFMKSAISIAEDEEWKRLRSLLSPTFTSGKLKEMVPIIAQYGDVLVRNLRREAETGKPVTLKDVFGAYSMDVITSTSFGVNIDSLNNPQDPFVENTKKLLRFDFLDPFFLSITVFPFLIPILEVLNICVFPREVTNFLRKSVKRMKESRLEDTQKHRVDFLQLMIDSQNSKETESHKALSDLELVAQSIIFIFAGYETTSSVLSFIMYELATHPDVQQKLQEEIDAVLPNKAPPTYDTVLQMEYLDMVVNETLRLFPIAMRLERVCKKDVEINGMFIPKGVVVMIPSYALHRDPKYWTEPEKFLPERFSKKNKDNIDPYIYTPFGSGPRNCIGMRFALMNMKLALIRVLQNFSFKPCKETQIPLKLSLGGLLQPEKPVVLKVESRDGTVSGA

SMILES	Ki [1, 4]	Ki [1, 5]	IC50 [2]	IC50 [3]
Cc1ccccc1CNC(=O)c1ccccc1S(=O)(=O)Nc1cccnc1 [Example 74, N-(2-methylbenzyl)-2-[(pyridin-3-ylamino)sulfonyl]benzamide]	174 nM	4.8 nM	< 3 nM	23 nM
Cc1ccccc1CCNC(=O)c1ccccc1S(=O)(=O)Nc1cccnc1 [Example 75, N-[2-(2-methylphenyl)ethyl]-2-[(pyridin-3-ylamino)sulfonyl]benzamide]	43 nM	2.4 nM	13 nM	16 nM
Cc1cccc(CCNC(=O)c2ccccc2S(=O)(=O)Nc2cccnc2)c1 [Example 76, N-[2-(3-methylphenyl)ethyl]-2-[(pyridin-3-ylamino)sulfonyl]benzamide]	76.7 nM	9.4 nM	29 nM	24 nM
O=C(NCCc1ccccc1)c1ccccc1S(=O)(=O)Nc1cccnc1 [Example 77, N-(2-phenylethyl)-2-[(pyridin-3-ylamino)sulfonyl]benzamide]	131 nM	5.6 nM	192 nM	23 nM
CCN(Cc1ccccc1)C(=O)c1ccccc1S(=O)(=O)Nc1cccnc1 [Example 78, N-benzyl-N-ethyl-2-[(pyridin-3-ylamino)sulfonyl]benzamide]	158 nM	13.8 nM	> 750 nM	22 nM
Cc1ccc(CNC(=O)c2ccccc2S(=O)(=O)Nc2cccnc2)cc1 [Example 79, N-(4-methylbenzyl)-2-[(pyridin-3-ylamino)sulfonyl]benzamide]	144 nM	26.2 nM	177 nM	30 nM
Cc1cccc(CNC(=O)c2ccccc2S(=O)(=O)Nc2cccnc2)c1 [Example 80, N-(3-methylbenzyl)-2-[(pyridin-3-ylamino)sulfonyl]benzamide]	206 nM	4.1 nM	71 nM	25 nM
CNC(=O)c1ccc(CNC(=O)c2ccccc2S(=O)(=O)Nc2cccnc2)cc1 [Example 81, N-{4-[(methylamino)carbonyl]benzyl}-2-[(pyridin-3-ylamino)sulfonyl]benzamide]	> 1000 nM	276 nM	< 3 nM	501 nM
O=C(NCc1ccc2c(c1)CCO2)c1ccccc1S(=O)(=O)Nc1cccnc1 [Example 82, N-(2,3-dihydro-1-benzofuran-5-ylmethyl)-2-[(pyridin-3-ylamino)sulfonyl]benzamide]	743 nM	20.9 nM	25 nM	28 nM
O=C(c1ccccc1S(=O)(=O)Nc1cccnc1)N1CCc2ccccc2C1 [Example 83, 2-(3,4-dihydroisoquinolin-2(1H)-ylcarbonyl)-N-pyridin-3-ylbenzenesulfonamide]	127 nM	12.8 nM	28 nM	35 nM
CN(C)Cc1ccc(CNC(=O)c2ccccc2S(=O)(=O)Nc2cccnc2)cc1 [Example 84, N-{4-[(dimethylamino)methyl]benzyl}-2-[(pyridin-3-ylamino)sulfonyl]benzamide]	> 1000 nM	464 nM	28 nM	> 750 nM
O=C(NCc1ccc(F)c(F)c1)c1ccccc1S(=O)(=O)Nc1cccnc1 [Example 85, N-(3,4-difluorobenzyl)-2-[(pyridin-3-ylamino)sulfonyl]benzamide]	105 nM	12.1 nM	41 nM	16 nM
CC(C)(O)c1ccc(CNC(=O)c2ccccc2S(=O)(=O)Nc2cccnc2)cc1 [Example 86, N-[4-(1-hydroxy-1-methylethyl)benzyl]-2-[(pyridin-3-ylamino)sulfonyl]benzamide]	> 1000 nM	209 nM	27 nM	118 nM
O=C(NCc1cccc(F)c1F)c1ccccc1S(=O)(=O)Nc1cccnc1 [Example 87, N-(2,3-difluorobenzyl)-2-[(pyridin-3-ylamino)sulfonyl]benzamide]	90 nM	6.3 nM	10 nM	30 nM
O=C(c1ccccc1S(=O)(=O)Nc1cccnc1)N1Cc2ccccc2C1 [Example 88, 2-(1,3-dihydro-2H-isoindol-2-ylcarbonyl)-N-pyridin-3-ylbenzenesulfonamide]	362 nM	47.6 nM	28 nM	185 nM
O=C(NCc1ccc2ncccc2c1)c1ccccc1S(=O)(=O)Nc1cccnc1 [Example 89, 2-[(pyridin-3-ylamino)sulfonyl]-N-(quinolin-6-ylmethyl)benzamide]	> 1000 nM	218 nM	60 nM	54 nM
COc1ccccc1CNC(=O)c1ccccc1S(=O)(=O)Nc1cccnc1 [Example 90, N-(2-methoxybenzyl)-2-[(pyridin-3-ylamino)sulfonyl]benzamide]	313 nM	25.2 nM	36 nM	10 nM
COc1cncc(NS(=O)(=O)c2ccccc2C(=O)NC(C)(C)c2ccc(F)c(F)c2)c1 [Example 148, N-[1-(3,4-difluorophenyl)-1-methylethyl]-2-{[(5-methoxypyridin-3-yl)amino]sulfonyl}benzamide]	18.1 nM	4.9 nM	15 nM	< 3 nM
COc1cncc(NS(=O)(=O)c2ccccc2C(=O)NC2CCC(C)CC2)c1 (stereo not drawn) [Example 149, 2-{[(5-methoxypyridin-3-yl)amino]sulfonyl}-N-(4-methylcyclohexyl)benzamide]	208 nM	12.3 nM	21 nM	12 nM

Results, then the compound that gave them:

Ki [1, 4]	Ki [1, 5]	IC50 [2]	IC50 [3]	SMILES
52.2 nM	9.2 nM	15 nM	38 nM	COc1cncc(NS(=O)(=O)c2ccccc2C(=O)NCc2ccc(Cl)cc2F)c1 [Example 150, N-(4-chloro-2-fluorobenzyl)-2-{[(5-methoxypyridin-3-yl)amino]sulfonyl}benzamide]
120 nM	12.2 nM	16 nM	28 nM	COc1cncc(NS(=O)(=O)c2ccccc2C(=O)NCc2cc(Cl)ccc2F)c1 [Example 151, N-(5-chloro-2-fluorobenzyl)-2-{[(5-methoxypyridin-3-yl)amino]sulfonyl}benzamide]
46.1 nM	6.4 nM	23 nM	13 nM	COc1cncc(NS(=O)(=O)c2ccccc2C(=O)NCCc2cccc(Cl)c2)c1 [Example 152, N-[2-(3-chlorophenyl)ethyl]-2-{[(5-methoxypyridin-3-yl)amino]sulfonyl}benzamide]
262 nM	27.1 nM	19 nM	5 nM	COc1cncc(NS(=O)(=O)c2ccccc2C(=O)NCc2ccc3c(c2)CCO3)c1 [Example 153, N-(2,3-dihydro-1-benzofuran-5-ylmethyl)-2-{[(5-methoxypyridin-3-yl)amino]sulfonyl}benzamide]
11.5 nM	3.2 nM	23 nM	6 nM	Cc1cncc(NS(=O)(=O)c2ccccc2C(=O)N(C)CCc2ccccc2C)c1 [Example 154, N-methyl-N-[2-(2-methylphenyl)ethyl]-2-{[(5-methylpyridin-3-yl)amino]sulfonyl}benzamide]
2.8 nM	1.6 nM	15 nM	8 nM	Cc1cncc(NS(=O)(=O)c2ccccc2C(=O)NCc2cc(Cl)cc(Cl)c2)c1 [Example 155, N-(3,5-dichlorobenzyl)-2-{[(5-methylpyridin-3-yl)amino]sulfonyl}benzamide]
84 nM	5 nM	11 nM	13 nM	Cc1cncc(NS(=O)(=O)c2ccccc2C(=O)NCc2ccc(F)c(C)c2)c1 [Example 156, N-(4-fluoro-3-methylbenzyl)-2-{[(5-methylpyridin-3-yl)amino]sulfonyl}benzamide]
49.4 nM	1.3 nM	8 nM	8 nM	Cc1cncc(NS(=O)(=O)c2ccccc2C(=O)NCc2ccc(C)c(F)c2)c1 [Example 157, N-(3-fluoro-4-methylbenzyl)-2-{[(5-methylpyridin-3-yl)amino]sulfonyl}benzamide]
19.7 nM	0.9 nM	10 nM	6 nM	Cc1cncc(NS(=O)(=O)c2ccccc2C(=O)NCc2ccc(F)c(Cl)c2)c1 [Example 158, N-(3-chloro-4-fluorobenzyl)-2-{[(5-methylpyridin-3-yl)amino]sulfonyl}benzamide]
751 nM	144 nM	129 nM	64 nM	Cc1cncc(NS(=O)(=O)c2ccccc2C(=O)NCc2ccc(S(C)(=O)=O)cc2)c1 [Example 159, 2-{[(5-methylpyridin-3-yl)amino]sulfonyl}-N-[4-(methylsulfonyl)benzyl]benzamide]
> 1000 nM	163 nM	202 nM	129 nM	CCOc1ccncc1NS(=O)(=O)c1ccccc1C(=O)N(C)CCOC [Example 160, 2-{[(4-ethoxypyridin-3-yl)amino]sulfonyl}-N-(2-methoxyethyl)-N-methylbenzamide]
